Measured values published in patent USRE48461E1, “Modulation of androgen receptor expression” (Ionis Pharmaceuticals, Inc., priority 2012, dated 2021).
Oligonucleotides are written 5' to 3', each unit as a sugar letter and its base; * is a phosphorothioate linkage, no mark a phosphodiester; rarer units and linkages stand in square brackets, end groups in braces. Plain capitals give the bases only. e = 2'-O-(2-methoxyethyl) (MOE); k = constrained ethyl (cEt); [5mC] = 5-methylcytosine; d = 2'-deoxy (DNA)

Tests used:
AR mRNA [1] = experiment: Antisense inhibition of human AR in HuVEC cells, single concentration (electroporation, qRT-PCR RTS3559); type: cell-based
Method in brief: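 HuVEC cells electroporated with antisense oligonucleotides at a single concentration. AR mRNA quantified by qRT-PCR using human primer-probe set RTS3559 and normalised to total RNA content by RIBOGREEN.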

AR mRNA [2] = experiment: Dose-dependent antisense inhibition of human AR in HuVEC cells (electroporation, qRT-PCR RTS3559, IC50); type: cell-based; details: HuVEC
Method in brief: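 HuVEC cells dosed with antisense oligonucleotides by electroporation and treated approximately 16 hours. AR mRNA quantified by real-time qPCR with primer probe set RTS3559 and normalised to total RNA by RIBOGREEN; IC50 from dose-response.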

AR mRNA [3] = experiment: AR mRNA in LnCaP cells by free uptake (hAR_LTS00943); type: cell-based, human; details: 24 hrs
Method: Cells were plated at a concentration of 4,000 cells/well in 96-well plates. ISIS oligonucleotides, specified in Table 68, were added individually at 0.02 μM, 0.10 μM, 0.50 μM, 2.50 μM, or 10.00 μM. After an incubation period of 24 hrs, mRNA levels were measured using primer probe set hAR_LTS00943.

[4] = Table 35, electroporation, approximately 16 hours
[5] = Table 25, 1,000 nM oligonucleotide, electroporation, approximately 24 hours, relative to untreated control
[6] = Table 36, electroporation, approximately 16 hours

## 569213 (antisense kT*kG*kA*dT*dT*dT*dA*dA*dT*dG*dG*dT*kT*kG*k[5mC]*eA) [compound 569213]
AR mRNA [1]; 250 nM ASO, ~24 h, Table 7
  % inhibition: 69%
AR mRNA [2]; 31.25 nM, ~16 h, Table 8
  percent inhibition of AR: 35%
AR mRNA [2]; 62.5 nM, ~16 h, Table 8
  percent inhibition of AR: 53%
AR mRNA [2]; 125.0 nM, ~16 h, Table 8
  percent inhibition of AR: 65%
AR mRNA [2]; 500.0 nM, ~16 h, Table 8
  percent inhibition of AR: 94%
AR mRNA [2]; 1000.0 nM, ~16 h, Table 8
  percent inhibition of AR: 96%
AR mRNA [2]; ~16 h, Table 8
  IC50: 60 nM
AR mRNA [3]; 0.02 μM
  Percent inhibition of AR mRNA: 3%
AR mRNA [3]; 0.1 μM
  Percent inhibition of AR mRNA: 0%
AR mRNA [3]; 0.5 μM
  Percent inhibition of AR mRNA: 31%
AR mRNA [3]; 10 μM
  Percent inhibition of AR mRNA: 78%

## 569216 (antisense eT*kG*kA*kT*dT*dT*dA*dA*dT*dG*dG*dT*kT*kG*k[5mC]*eA) [compound 569216]
AR mRNA [1]; 250 nM ASO, ~24 h, Table 7
  % inhibition: 68%
AR mRNA [2]; 31.25 nM, ~16 h, Table 8
  percent inhibition of AR: 38%
AR mRNA [2]; 62.5 nM, ~16 h, Table 8
  percent inhibition of AR: 51%
AR mRNA [2]; 125.0 nM, ~16 h, Table 8
  percent inhibition of AR: 68%
AR mRNA [2]; 500.0 nM, ~16 h, Table 8
  percent inhibition of AR: 91%
AR mRNA [2]; 1000.0 nM, ~16 h, Table 8
  percent inhibition of AR: 96%
AR mRNA [2]; ~16 h, Table 8
  IC50: 50 nM
AR mRNA [3]; 0.02 μM
  Percent inhibition of AR mRNA: 15%
AR mRNA [3]; 0.1 μM
  Percent inhibition of AR mRNA: 17%
AR mRNA [3]; 0.5 μM
  Percent inhibition of AR mRNA: 49%
AR mRNA [3]; 10 μM
  Percent inhibition of AR mRNA: 82%

## 569221 (antisense eT*eG*kA*kT*kT*dT*dA*dA*dT*dG*dG*dT*dT*kG*k[5mC]*kA) [compound 569221]
AR mRNA [2]; 62.5 nM, ~16 h, Table 12
  percent inhibition of AR: 12%
AR mRNA [2]; 125.0 nM, ~16 h, Table 12
  percent inhibition of AR: 32%
AR mRNA [2]; 500.0 nM, ~16 h, Table 12
  percent inhibition of AR: 57%
AR mRNA [2]; 1000.0 nM, ~16 h, Table 12
  percent inhibition of AR: 73%
AR mRNA [2]; ~16 h, Table 12
  IC50: 294 nM
AR mRNA [3]; 0.02 μM
  Percent inhibition of AR mRNA: 18%
AR mRNA [3]; 0.1 μM
  Percent inhibition of AR mRNA: 31%
AR mRNA [3]; 0.5 μM
  Percent inhibition of AR mRNA: 49%
AR mRNA [3]; 10 μM
  Percent inhibition of AR mRNA: 91%

## 579666 (antisense eT*kG*kA*eT*eT*kT*kA*dA*dT*dG*dG*dT*dT*dG*k[5mC]*kA) [compound 579666]
AR mRNA [2]; 62.5 nM, ~16 h, Table 10
  percent inhibition of AR: 33%
AR mRNA [2]; 125.0 nM, ~16 h, Table 10
  percent inhibition of AR: 34%
AR mRNA [2]; 500.0 nM, ~16 h, Table 10
  percent inhibition of AR: 64%
AR mRNA [2]; 1000.0 nM, ~16 h, Table 10
  percent inhibition of AR: 80%
AR mRNA [2]; ~16 h, Table 10
  IC50: 229 nM
AR mRNA [3]; 0.02 μM
  Percent inhibition of AR mRNA: 0%
AR mRNA [3]; 0.1 μM
  Percent inhibition of AR mRNA: 8%
AR mRNA [3]; 0.5 μM
  Percent inhibition of AR mRNA: 30%
AR mRNA [3]; 10 μM
  Percent inhibition of AR mRNA: 68%

## 579667 (antisense eT*kT*kG*eA*eT*kT*kT*dA*dA*dT*dG*dG*dT*dT*kG*k[5mC]) [compound 579667]
AR mRNA [2]; 62.5 nM, ~16 h, Table 10
  percent inhibition of AR: 30%
AR mRNA [2]; 125.0 nM, ~16 h, Table 10
  percent inhibition of AR: 29%
AR mRNA [2]; 500.0 nM, ~16 h, Table 10
  percent inhibition of AR: 36%
AR mRNA [2]; 1000.0 nM, ~16 h, Table 10
  percent inhibition of AR: 76%
AR mRNA [2]; ~16 h, Table 10
  IC50: 411 nM
AR mRNA [3]; 0.02 μM
  Percent inhibition of AR mRNA: 0%
AR mRNA [3]; 0.1 μM
  Percent inhibition of AR mRNA: 0%
AR mRNA [3]; 0.5 μM
  Percent inhibition of AR mRNA: 8%
AR mRNA [3]; 10 μM
  Percent inhibition of AR mRNA: 40%

## 584183 (kA*k[5mC]*kA*dG*dG*d[5mC]*dT*d[5mC]*dT*dG*dA*d[5mC]*dT*kA*kG*kG; antisense) [compound 584183]
AR mRNA [1]; Table 24, 1,000 nM oligonucleotide, electroporation, approximately 24 hours, relative to untreated control
  % inhibition: 76%
AR mRNA [2]; [4]
  percent inhibition of AR, 46.9 nM: 3%
  percent inhibition of AR, 187.5 nM: 41%
  percent inhibition of AR, 750.0 nM: 64%
  percent inhibition of AR, 3000.0 nM: 87%
  IC50: 310 nM

## 584233 (kG*kG*kA*dT*dT*d[5mC]*dT*d[5mC]*dT*dA*d[5mC]*dA*d[5mC]*kA*k[5mC]*kA; antisense) [compound 584233]
AR mRNA [1]; [5]
  % inhibition: 62%
AR mRNA [2]; [6]
  percent inhibition of AR, 46.9 nM: 0%
  percent inhibition of AR, 187.5 nM: 30%
  percent inhibition of AR, 750.0 nM: 66%
  percent inhibition of AR, 3000.0 nM: 86%
  IC50: 390 nM

## 584242 (k[5mC]*k[5mC]*kA*dT*dT*dT*dG*dT*dG*d[5mC]*d[5mC]*dA*dA*kA*k[5mC]*k[5mC]; antisense) [compound 584242]
AR mRNA [1]; [5]
  % inhibition: 62%
AR mRNA [2]; [6]
  percent inhibition of AR, 46.9 nM: 12%
  percent inhibition of AR, 187.5 nM: 38%
  percent inhibition of AR, 750.0 nM: 66%
  percent inhibition of AR, 3000.0 nM: 93%
  IC50: 270 nM
